From ChEMBL document CHEMBL2203248, “Identification of novel series of pyrazole and indole-urea based DFG-out PYK2 inhibitors” (Bioorg Med Chem Lett, 2012) come the findings set out here.

Series [1] is described as follows: Clearance in human liver microsomes at 1 uM after 40 mins by HPLC-MS analysis. In kind it is ADME, Microsome. The following applies: read-out: CLH. A general note: Microsomes from liver hold many membrane-bound enzymes, among them those of drug oxidation.
A short description of series [2]: Lipophilicity, log D of the compound at pH 7.4. The format is physicochemical. Conditions: buffer.
Series [3] in a line: Plasma clearance in Wistar Han rat at 1 mg/kg, iv. Also noted: dose 1 mg/kg, route intravenous. In kind it is ADME, organism-based.
Series [4] is described as follows: Cmax in Wistar Han rat at 30 mg/kg, po. The format is ADME, organism-based. Also noted: dose 30 mg/kg, route oral. Conditions: in vivo.
Series [5] in a line: Oral bioavailability in Wistar Han rat at 30 mg/kg. In kind it is ADME, organism-based. The following applies: in vivo.
The subject of series [6] is Rattus norvegicus. As to the kind of experiment: fCmax in Wistar Han rat at 30 mg/kg, po. In kind it is ADME, organism-based. Set-up: dose 30 mg/kg, route oral. The following applies: in vivo.
Series [7] can be described thus: Volume of distribution at steady state in Wistar Han rat at 1 mg/kg, iv. The format is ADME, organism-based. Set-up: dose 1 mg/kg, route intravenous. Conditions: in vivo, read-out: Vdss.
Series [8] is described as follows: Terminal elimination half life in Wistar Han rat at 1 mg/kg, iv. The format is ADME, organism-based. Also noted: dose 1 mg/kg, route intravenous. The following applies: in vivo, read-out: beta t1/2 (converted).
Series [9] in a line: Terminal elimination half life in Wistar Han rat at 100 mg/kg, po. The following applies: in vivo, read-out: beta t1/2 (converted). In kind it is ADME, organism-based. Also noted: dose 100 mg/kg, route oral.
Series [10] deals with Rattus norvegicus. As to the kind of experiment: fCmax in Wistar Han rat at 100 mg/kg, po. Conditions: in vivo. Also noted: dose 100 mg/kg, route oral. The format is ADME, organism-based.
Series [11] in a line: Cmax in Wistar Han rat at 100 mg/kg, po. The format is ADME, organism-based. Also noted: dose 100 mg/kg, route oral. The following applies: in vivo.

With `Cc1ccc(-n2nc(C(C)(C)C)cc2NC(=O)Nc2cc(COc3cccnc3)n[nH]2)cc1`, in series [1], the CLint scaled at 1 µM was 6.54 L/h/kg.
Consider `CNC(=O)c1cc2cccc(NC(=O)Nc3cc(C(C)(C)C)nn3-c3ccc(C)cc3)c2[nH]1`, for which the logD – broadly, the decadic logarithm of the distribution of all forms, ionised or not, between an organic phase and buffer at a given pH – in [2] was 4.9. In addition, the CLint scaled at 1 µM in [1] turned out to be 1.68 L/h/kg.
The like results for `Cc1ccc(-n2nc(C(C)(C)C)cc2NC(=O)Nc2cccc3cc(C(=O)NC(C)C)[nH]c23)cc1` were, in that order, 5.3 and 5.58 L/h/kg.
For the compound `Cc1ccc(-n2nc(C(C)(C)C)cc2NC(=O)Nc2cccc3cc(C(=O)N4CCC5(CCNC5)C4)[nH]c23)cc1` (stereo not given), the CLint scaled at 1 µM in series [1] worked out at 3.18 L/h/kg.
In the case of `Cc1ccc(-n2nc(C(C)(C)C)cc2NC(=O)Nc2cccc3cc(C(=O)N(C)CCc4ccccn4)[nH]c23)cc1`, the clearance (commonly a measure of how efficiently the substance is removed, as volume per time) in [3] was found to be 0.192 L/h/kg. Further, the CLint scaled at 1 µM in [1] was found to be 3.18 L/h/kg. For the same compound, the highest concentration (Cmax) – broadly, the peak of the concentration-time curve – in [4] was found to be 38.3 µM. Further, in series [5], the bioavailability (usually the share of a dose that reaches the circulation, judged against a reference dose that is usually intravenous) amounted to 69%. The fCmax in series [6] is 25 nM. The Vd in series [7] came out at 0.4 L/kg. Moreover, the half-life in [8] is 2.2 h.
Regarding `CCOCCCNC(=O)c1cc2cccc(NC(=O)Nc3cc(C(C)(C)C)nn3-c3ccc(C)cc3)c2[nH]1`, the clearance in series [3] was determined as 0.288 L/h/kg. Also, the CLint scaled at 1 µM in series [1] worked out at 1.86 L/h/kg. Moreover, in [4], the highest level (Cmax) was 0.621 µM. Moreover, in series [5], the bioavailability was 1.6%. In addition, the fCmax in series [6] is recorded as 42 nM. The Vd in [7] was 0.7 L/kg. In [8], the half-life is 4.1 h.
As for `COc1ccc(-c2cc(NC(=O)Nc3cc(C(C)(C)C)nn3-c3ccc(C)cc3)n[nH]2)c(C)c1`, the CLint scaled at 1 µM in series [1] came out at 7.74 L/h/kg.
`COc1ccc(-c2cc(NC(=O)Nc3cc(C(C)(C)C)nn3-c3ccc(C)cc3)n[nH]2)cn1`: in series [2], the logD came to 4.9. The CLint scaled at 1 µM in series [1] is 2.88 L/h/kg.
`Cc1ccc(-n2nc(C(C)(C)C)cc2NC(=O)Nc2cc(-c3ccc(=O)[nH]c3)n[nH]2)cc1` came in with a pH-dependent lipophilicity (logD) in series [2] of 3.7. Also, the CLint scaled at 1 µM in [1] amounted to 0.714 L/h/kg.
Consider `Cc1ccc(-n2nc(C(C)(C)C)cc2NC(=O)Nc2cc(-c3ccc(O)nn3)[nH]n2)cc1`, for which, in series [1], the CLint scaled at 1 µM worked out at 0.96 L/h/kg.
As for `Cc1ccc(-n2nc(C(C)(C)C)cc2NC(=O)Nc2cc(-c3ccc(=O)n(C)c3)n[nH]2)cc1`, the log distribution coefficient (logD) in series [2] amounted to 3.8. Besides, the CLint scaled at 1 µM in series [1] was found to be 1.2 L/h/kg.
As for `Cc1ccc(-n2nc(C(C)(C)C)cc2NC(=O)Nc2cc(-c3ccc4c(c3)OCCO4)[nH]n2)cc1`, in series [1], the CLint scaled at 1 µM was determined as 5.52 L/h/kg.
Compound `Cc1ccc(-n2nc(C(C)(C)C)cc2NC(=O)Nc2cc(-c3ccc4nccn4c3)[nH]n2)cc1` gave a logD in [2] of 4.5. Also, the CLint scaled at 1 µM in series [1] is 2.64 L/h/kg.
Consider `Cc1ccc(-n2nc(C(C)(C)C)cc2NC(=O)Nc2cc(-c3ccc4ncccc4c3)n[nH]2)cc1`, for which, in [2], the pH-dependent lipophilicity (logD) is 5.2. For the same compound, in [3], the clearance stood at 0.12 L/h/kg. Besides, the CLint scaled at 1 µM in series [1] was found to be 3.3 L/h/kg. In series [4], this compound had a Cmax of 61.3 µM. For the same compound, in [5], the bioavailability came to 47%. Also, in series [6], the fCmax worked out at 184 nM. Further, in series [7], the Vd was found to be 0.15 L/kg. In addition, the half-life in [8] is 2 h.
`Cc1ccc(-n2nc(C(C)(C)C)cc2NC(=O)Nc2cc(-c3ccc4nccnc4c3)[nH]n2)cc1`: the log distribution coefficient (logD) in series [2] was 4.7. For the same compound, the half-life in series [9] is 7.3 h. Further, in series [10], the fCmax is reported as 1.1 nM. The CLint scaled at 1 µM in series [1] turned out to be 8.94 L/h/kg. In series [11], this compound displayed a Cmax of 0.068 µM.
With `Cc1ccc(-n2nc(C(C)(C)C)cc2NC(=O)Nc2cccc3cc(C(=O)N4CCCC4)[nH]c23)cc1`, in series [1], the CLint scaled at 1 µM came to 4.62 L/h/kg.
